Source: ChEMBL document CHEMBL1629610, “A 6-aminoquinolone compound, WC5, with potent and selective anti-human cytomegalovirus activity” (Antimicrob Agents Chemother, 2009)
Calls of active or inactive are those of the source. The calls are words filed in the database; no cut-off is given here.

What was measured:
[1] = Selectivity index, ratio of CC50 for Human foreskin fibroblast to EC50 for Human cytomegalovirus AD169
[2] = Cytotoxicity against human foreskin fibroblast after 5 days by MTT assay; assay type: cell-based; conditions: human foreskin fibroblasts (HFF)
Human betaherpesvirus 5 [3] = test: Antiviral activity against Human cytomegalovirus AD169 infected in human foreskin fibroblast assessed as inhibition of viral replication after 10 days by plaque reduction assay; assay type: functional, organism-based; conditions: Human betaherpesvirus 5, AD169, 240 h
Human betaherpesvirus 5 [4] = test: Antiviral activity against Human cytomegalovirus infected in human […] cells transfected with pcDNA3.1-HIV1 LTR-GFP assessed as induction of GFP-tagged viral immediate early gene expression at 0.5 uM after 48 hrs by transactivation assay; assay type: functional, organism-based; conditions: AD169
Human betaherpesvirus 5 [5] = test: Antiviral activity against Human cytomegalovirus infected in human […] cells transfected with pcDNA3.1-human EF1alpha-GFP assessed as induction of GFP-tagged viral immediate early gene expression at 0.5 uM after 48 hrs by transactivation assay; assay type: functional, organism-based; conditions: AD169
Human betaherpesvirus 5 [6] = test: Antiviral activity against Human cytomegalovirus AD169 infected in human […] cells assessed as induction of GFP-tagged viral immediate early gene expression at 0.5 uM after 48 hrs by flow cytometry; assay type: functional, organism-based
Human betaherpesvirus 5 [7] = test: Antiviral activity against Human cytomegalovirus infected in human […] cells transfected with pcDNA3.1-human GADPH-GFP assessed as induction of GFP-tagged viral immediate early gene expression at 0.5 uM after 48 hrs by transactivation assay; assay type: functional, organism-based; conditions: AD169
Human betaherpesvirus 5 [8] = test: Antiviral activity against GCV-resistant Human cytomegalovirus 759rD100 harboring 4-aa deletion (638-641) in UL97 kinase and DNA polymerase A987G mutant infected in human foreskin fibroblast by plaque reduction assay; assay type: functional, organism-based; conditions: Human betaherpesvirus 5, 759rD100
Human betaherpesvirus 5 [9] = test: Antiviral activity against Human cytomegalovirus infected in human […] cells transfected with pcDNA3.1-human GADPH-GFP assessed as induction of GFP-tagged viral immediate early gene expression at 50 uM after 48 hrs by transactivation assay; assay type: functional, organism-based; conditions: AD169
Human betaherpesvirus 5 [10] = test: Antiviral activity against Human cytomegalovirus infected in human […] cells transfected with pcDNA3.1-HIV1 LTR-GFP assessed as induction of GFP-tagged viral immediate early gene expression at 50 uM after 48 hrs by transactivation assay; assay type: functional, organism-based; conditions: AD169
MOLT-4 = test: Antiviral activity against Human herpesvirus 6B Z29 infected in human MOLT4 cells assessed as inhibition of virus-induced cytopathic effect by microscopic estimation; assay type: functional, cell-based; conditions: Human herpesvirus 6 strain Z29
[11] = Ratio of EC50 for Human cytomegalovirus AD169 to EC50 for Murine cytomegalovirus; assay type: functional
Human betaherpesvirus 5 [12] = test: Antiviral activity against GDG-, GCV-,CDV-resistant Human cytomegalovirus P53 harboring DNA polymerase A987G mutant gene infected in human foreskin fibroblast by plaque reduction assay; assay type: functional, organism-based; conditions: Human betaherpesvirus 5, P53
[13] = Antiviral activity against Human herpesvirus 6A GS infected in human HSB-2 cells assessed as inhibition of virus DNA replication after 12 days by quantitative real time PCR; assay type: functional, cell-based, Human herpesvirus 6 (strain GS); conditions: Human betaherpesvirus 6A, HSB2, 288 h
Human betaherpesvirus 5 [14] = test: Antiviral activity against Human cytomegalovirus infected in human […] cells transfected with pcDNA3.1-human EF1alpha-GFP assessed as induction of GFP-tagged viral immediate early gene expression at 50 uM after 48 hrs by transactivation assay; assay type: functional, organism-based; conditions: AD169
[15] = Cytotoxicity against human MOLT4 cells by MTT assay; assay type: cell-based, MOLT-4
[16] = Antiviral activity against Human herpesvirus 6B Z29 infected in human MOLT4 cells assessed as inhibition of virus DNA replication after 12 days by quantitative real time PCR; assay type: functional, cell-based, Human herpesvirus 6 strain Z29; conditions: Human betaherpesvirus 6B, MOLT-4, 288 h
[17] = Selectivity index, ratio of CC50 for mouse NIH 3T3 cells to EC50 for Murine cytomegalovirus; assay type: toxicity, cell-based, NIH3T3; conditions: read-out: Ratio CC50/EC50
Human betaherpesvirus 5 [18] = test: Antiviral activity against PFA-, acyclovir-resistant Human cytomegalovirus D100 harboring mutation in DNA polymerase infected in human foreskin fibroblast by plaque reduction assay; assay type: functional, organism-based; conditions: Human betaherpesvirus 5, D100
HSB-2 = test: Antiviral activity against Human herpesvirus 6A GS infected in human HSB-2 cells assessed as inhibition of virus-induced cytopathic effect by microscopic estimation; assay type: functional, cell-based; conditions: Human herpesvirus 6 (strain GS)
[19] = Selectivity index, ratio of CC50 for human HSB-2 cells to EC50 for Human herpesvirus 6A GS; assay type: toxicity, cell-based; conditions: read-out: Ratio CC50/EC50
[20] = Cytotoxicity against mouse NIH/3T3 cells by MTT assay; assay type: cell-based, NIH3T3
Human gammaherpesvirus 8 [21] = test: Antiviral activity against Human herpesvirus 8 infected in human BC-3 cells assessed as inhibition of virus-induced cytopathic effect by microscopic estimation; assay type: functional, organism-based
[22] = Selectivity index, ratio of CC50 for human BC-3 cells to EC50 for Human herpesvirus 8; assay type: toxicity, cell-based; conditions: read-out: Ratio CC50/EC50
Human betaherpesvirus 5 [23] = test: Antiviral activity against GDG-, GCV-resistant Human cytomegalovirus K17 harboring 4-aa deletion (638-641) in UL97 kinase infected in human foreskin fibroblast by plaque reduction assay; assay type: functional, organism-based; conditions: Human betaherpesvirus 5, K17
Human gammaherpesvirus 8 [24] = test: Antiviral activity against Human herpesvirus 8 infected in human BC-3 cells assessed as inhibition of virus DNA replication after 12 days by quantitative real time PCR; assay type: functional, organism-based; conditions: Human gammaherpesvirus 8, BC-3, 288 h
[25] = Selectivity index, ratio of CC50 for human MOLT4 cells to EC50 for Human herpesvirus 6B Z29; assay type: toxicity, cell-based, MOLT-4; conditions: read-out: Ratio CC50/EC50
[26] = Antiviral activity against Murine cytomegalovirus Smith infected in mouse NIH-3T3 cells assessed as inhibition of virus DNA replication after 12 days by plaque reduction assay; assay type: functional, cell-based, Murine cytomegalovirus (strain Smith); conditions: Murid betaherpesvirus 1, NIH3T3, 288 h
Human betaherpesvirus 5 [27] = test: Antiviral activity against Human cytomegalovirus AD169 infected in human foreskin fibroblast by plaque reduction assay; assay type: functional, organism-based; conditions: Human betaherpesvirus 5, AD169
Human betaherpesvirus 5 [28] = test: Antiviral activity against Human cytomegalovirus AD169 infected in human […] cells assessed as induction of GFP-tagged viral immediate early gene expression at 50 uM after 48 hrs by flow cytometry; assay type: functional, organism-based
[29] = Cytotoxicity against human BC-3 cells by MTT assay; assay type: cell-based
[30] = Cytotoxicity against human HSB2 cells by MTT assay; assay type: cell-based, CCRF-HSB-2

CC(C)(C)n1cc(C(=O)O)c(=O)c2cc(N)c(N3CCN(c4ccccn4)CC3)cc21
Ratio CC50/EC50 [1]: >=13 | CC50 at 120 h [2]: ≥ 475 µM

Nc1nc2c(ncn2COC(CO)CO)c(=O)[nH]1 [GANCICLOVIR]
EC50 (Human betaherpesvirus 5 [3]): 1.9 µM | CC50 at 120 h [2]: 550 µM

Nc1cc2c(=O)c(C(=O)O)cn(C3CC3)c2cc1N1CCN(c2nc3ccccc3s2)CC1
Activity (Human betaherpesvirus 5 [4]): Active | Activity (Human betaherpesvirus 5 [5]): Active | Activity (Human betaherpesvirus 5 [6]): Active | Activity (Human betaherpesvirus 5 [7]): Active | CC50 at 120 h [2]: 4.5 µM

Cn1cc(C(=O)O)c(=O)c2cc(N)c(N3CCN(c4ccccn4)CC3)cc21
Ratio CC50/EC50 [1]: 77 | CC50 at 120 h [2]: 54 µM

Nc1cc2c(=O)c(C(=O)O)cn(C3CC3)c2cc1N1CCN(c2ccccn2)CC1
EC50 (Human betaherpesvirus 5 [8]): 0.9 µM | Activity (Human betaherpesvirus 5 [9]): inactive | Activity (Human betaherpesvirus 5 [10]): inactive | Activity (MOLT-4): Active | fold change (FC) [11]: 10 | EC50 (Human betaherpesvirus 5 [12]): 1 µM | EC50 [13]: 5.1 µM | Activity (Human betaherpesvirus 5 [14]): inactive | CC50 [15]: 24 µM | EC50 [16]: 3.3 µM | selectivity ratio [17]: 25 | EC50 (Human betaherpesvirus 5 [18]): 1.1 µM | Activity (HSB-2): Active | selectivity ratio [19]: 6 | CC50 [20]: 275 µM | Activity (Human gammaherpesvirus 8 [21]): Active | selectivity ratio [22]: 3 | EC50 (Human betaherpesvirus 5 [23]): 1.5 µM | EC50 (Human gammaherpesvirus 8 [24]): 14.2 µM | selectivity ratio [25]: 7 | EC50 [26]: 10.8 µM | EC50 (Human betaherpesvirus 5 [27]): 0.9 µM | Activity (Human betaherpesvirus 5 [28]): inactive | CC50 [29]: 47 µM | CC50 [30]: 32 µM | CC50 at 120 h [2]: 431 µM
